Source: ChEMBL document CHEMBL5325407, “Structure-based development of potent Plasmodium falciparum M1 and M17 aminopeptidase selective and dual inhibitors via S1'-region optimisation” (Eur J Med Chem, 2023)
≈ marks a conversion by molar mass, not a printed value. Calls of active or inactive are those of the source. The rule behind the calls is not given here.

How the values were obtained:
[1] = (§1) Inhibition of C-terminal 6-His tagged Plasmodium falciparum M1 aminopeptidase (195 to 1085 residues) expressed in Escherichia coli BL21(DE3) cells using H-Leu-NHMec as substrate assessed as apparent inhibition constant preincubated for 10 mins followed by substrate addition by spectrofluorimetric analysis; details: read-out: Ki(app)
[2] = as §1, with “M17” for “M1”, “(85” for “(195”, “605” for “1085”, “BL21 (DE3)” for “BL21(DE3)”; details: read-out: Ki(app)
[3] = system: Plasmodium falciparum; test: Antiplasmodial activity against drug-sensitive Plasmodium falciparum 3D7 infected in Red blood cell assessed as growth inhibition measured after 72 hrs by LDH assay; format: functional, organism-based; details: 3D7, Erythrocyte
[4] = molecular target: Histone deacetylase 1 (Homo sapiens) (UniProt Q13547); test: Inhibition of HDAC1 (unknown origin)
[5] = molecular target: Histone deacetylase 2 (Homo sapiens) (UniProt Q92769); test: Inhibition of HDAC2 (unknown origin)
Histone deacetylase 2 (Homo sapiens), sequence (Q92769 whole entry): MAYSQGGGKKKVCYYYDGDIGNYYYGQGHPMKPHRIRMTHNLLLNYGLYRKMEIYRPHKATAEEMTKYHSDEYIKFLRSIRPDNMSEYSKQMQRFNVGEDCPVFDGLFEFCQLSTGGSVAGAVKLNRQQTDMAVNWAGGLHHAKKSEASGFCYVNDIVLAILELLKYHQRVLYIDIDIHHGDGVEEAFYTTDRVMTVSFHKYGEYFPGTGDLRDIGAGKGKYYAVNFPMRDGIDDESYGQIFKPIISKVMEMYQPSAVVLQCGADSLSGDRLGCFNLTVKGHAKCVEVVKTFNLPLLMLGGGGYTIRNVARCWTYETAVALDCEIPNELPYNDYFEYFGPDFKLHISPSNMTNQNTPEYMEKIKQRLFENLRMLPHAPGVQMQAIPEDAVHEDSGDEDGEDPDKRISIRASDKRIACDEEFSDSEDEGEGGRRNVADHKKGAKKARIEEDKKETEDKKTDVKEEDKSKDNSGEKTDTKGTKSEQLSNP

[6] = molecular target: Histone deacetylase 5 (Homo sapiens) (UniProt Q9UQL6); test: Inhibition of HDAC5 (unknown origin)
Histone deacetylase 5 (Homo sapiens), sequence (Q9UQL6 whole entry): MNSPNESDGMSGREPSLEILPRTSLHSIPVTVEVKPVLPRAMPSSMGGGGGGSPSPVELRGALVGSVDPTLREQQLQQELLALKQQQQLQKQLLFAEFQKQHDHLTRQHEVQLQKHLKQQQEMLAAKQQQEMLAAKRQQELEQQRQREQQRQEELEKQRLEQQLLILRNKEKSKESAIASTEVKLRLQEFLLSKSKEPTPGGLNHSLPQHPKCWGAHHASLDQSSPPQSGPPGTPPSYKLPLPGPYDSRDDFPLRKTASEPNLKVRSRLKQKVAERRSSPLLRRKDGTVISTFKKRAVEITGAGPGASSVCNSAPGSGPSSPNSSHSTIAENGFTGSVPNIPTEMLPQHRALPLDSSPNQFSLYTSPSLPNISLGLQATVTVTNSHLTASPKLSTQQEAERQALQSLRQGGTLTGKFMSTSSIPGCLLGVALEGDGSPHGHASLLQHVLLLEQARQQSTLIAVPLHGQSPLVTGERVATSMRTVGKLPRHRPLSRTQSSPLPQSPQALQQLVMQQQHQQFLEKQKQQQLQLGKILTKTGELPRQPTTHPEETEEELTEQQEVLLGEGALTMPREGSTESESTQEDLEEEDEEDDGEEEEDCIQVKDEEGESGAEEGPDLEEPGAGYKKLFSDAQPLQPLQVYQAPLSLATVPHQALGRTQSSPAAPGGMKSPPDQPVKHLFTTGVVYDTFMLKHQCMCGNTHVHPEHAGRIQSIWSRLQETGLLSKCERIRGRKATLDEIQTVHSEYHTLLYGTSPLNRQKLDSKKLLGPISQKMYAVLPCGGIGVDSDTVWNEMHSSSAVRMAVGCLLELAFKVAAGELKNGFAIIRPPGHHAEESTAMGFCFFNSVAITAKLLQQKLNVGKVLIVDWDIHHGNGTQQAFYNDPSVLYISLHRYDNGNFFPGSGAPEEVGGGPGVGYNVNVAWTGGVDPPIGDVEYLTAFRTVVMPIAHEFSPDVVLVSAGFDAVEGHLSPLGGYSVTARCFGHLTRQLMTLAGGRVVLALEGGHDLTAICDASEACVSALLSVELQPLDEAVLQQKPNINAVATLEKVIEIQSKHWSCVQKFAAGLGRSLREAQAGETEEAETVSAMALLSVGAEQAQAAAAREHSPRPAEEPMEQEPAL

[7] = molecular target: T1, Histone deacetylase 7 (Homo sapiens) (UniProt Q8WUI4); test: Inhibition of HDAC7 (unknown origin)
T1 sequence (whole entry): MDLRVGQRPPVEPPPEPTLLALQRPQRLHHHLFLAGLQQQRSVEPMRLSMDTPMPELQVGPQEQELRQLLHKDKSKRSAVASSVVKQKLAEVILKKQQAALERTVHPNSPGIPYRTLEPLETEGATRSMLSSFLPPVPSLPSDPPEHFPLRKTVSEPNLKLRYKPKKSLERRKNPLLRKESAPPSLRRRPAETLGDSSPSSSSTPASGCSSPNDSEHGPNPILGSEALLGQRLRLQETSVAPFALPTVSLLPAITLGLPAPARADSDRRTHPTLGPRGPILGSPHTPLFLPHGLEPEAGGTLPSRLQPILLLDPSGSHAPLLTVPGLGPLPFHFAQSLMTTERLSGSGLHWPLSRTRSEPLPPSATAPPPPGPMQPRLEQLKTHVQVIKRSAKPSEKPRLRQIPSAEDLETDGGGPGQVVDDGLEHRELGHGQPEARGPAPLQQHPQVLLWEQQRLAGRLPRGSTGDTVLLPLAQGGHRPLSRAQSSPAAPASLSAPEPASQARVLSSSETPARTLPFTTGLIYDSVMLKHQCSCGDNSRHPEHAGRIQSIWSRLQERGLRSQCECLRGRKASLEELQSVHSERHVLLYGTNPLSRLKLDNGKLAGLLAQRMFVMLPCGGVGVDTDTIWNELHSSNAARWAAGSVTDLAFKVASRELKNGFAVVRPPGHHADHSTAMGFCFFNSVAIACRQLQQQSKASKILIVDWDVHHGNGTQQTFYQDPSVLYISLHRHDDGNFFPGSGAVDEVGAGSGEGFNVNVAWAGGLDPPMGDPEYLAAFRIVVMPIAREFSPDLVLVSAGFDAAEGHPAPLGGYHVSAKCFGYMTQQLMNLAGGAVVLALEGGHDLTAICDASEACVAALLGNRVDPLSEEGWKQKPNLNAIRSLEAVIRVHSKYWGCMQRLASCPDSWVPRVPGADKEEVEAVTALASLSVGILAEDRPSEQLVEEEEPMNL

[8] = molecular target: T2, Histone deacetylase 8 (Homo sapiens) (UniProt Q9BY41); test: Inhibition of HDAC8 (unknown origin)
T2 sequence (whole entry): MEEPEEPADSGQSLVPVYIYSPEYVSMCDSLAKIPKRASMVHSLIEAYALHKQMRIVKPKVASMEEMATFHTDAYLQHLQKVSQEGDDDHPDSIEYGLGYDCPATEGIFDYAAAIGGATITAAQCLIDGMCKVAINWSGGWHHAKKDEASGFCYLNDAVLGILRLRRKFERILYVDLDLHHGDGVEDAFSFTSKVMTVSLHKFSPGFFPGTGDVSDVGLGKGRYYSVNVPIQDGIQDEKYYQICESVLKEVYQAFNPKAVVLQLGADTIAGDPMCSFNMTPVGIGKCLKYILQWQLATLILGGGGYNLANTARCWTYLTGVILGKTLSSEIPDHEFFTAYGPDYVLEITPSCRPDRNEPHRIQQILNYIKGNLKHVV

[9] = molecular target: Histone deacetylase 9 (Homo sapiens) (UniProt Q9UKV0); test: Inhibition of HDAC9 (unknown origin)
Histone deacetylase 9 (Homo sapiens), sequence (Q9UKV0 whole entry): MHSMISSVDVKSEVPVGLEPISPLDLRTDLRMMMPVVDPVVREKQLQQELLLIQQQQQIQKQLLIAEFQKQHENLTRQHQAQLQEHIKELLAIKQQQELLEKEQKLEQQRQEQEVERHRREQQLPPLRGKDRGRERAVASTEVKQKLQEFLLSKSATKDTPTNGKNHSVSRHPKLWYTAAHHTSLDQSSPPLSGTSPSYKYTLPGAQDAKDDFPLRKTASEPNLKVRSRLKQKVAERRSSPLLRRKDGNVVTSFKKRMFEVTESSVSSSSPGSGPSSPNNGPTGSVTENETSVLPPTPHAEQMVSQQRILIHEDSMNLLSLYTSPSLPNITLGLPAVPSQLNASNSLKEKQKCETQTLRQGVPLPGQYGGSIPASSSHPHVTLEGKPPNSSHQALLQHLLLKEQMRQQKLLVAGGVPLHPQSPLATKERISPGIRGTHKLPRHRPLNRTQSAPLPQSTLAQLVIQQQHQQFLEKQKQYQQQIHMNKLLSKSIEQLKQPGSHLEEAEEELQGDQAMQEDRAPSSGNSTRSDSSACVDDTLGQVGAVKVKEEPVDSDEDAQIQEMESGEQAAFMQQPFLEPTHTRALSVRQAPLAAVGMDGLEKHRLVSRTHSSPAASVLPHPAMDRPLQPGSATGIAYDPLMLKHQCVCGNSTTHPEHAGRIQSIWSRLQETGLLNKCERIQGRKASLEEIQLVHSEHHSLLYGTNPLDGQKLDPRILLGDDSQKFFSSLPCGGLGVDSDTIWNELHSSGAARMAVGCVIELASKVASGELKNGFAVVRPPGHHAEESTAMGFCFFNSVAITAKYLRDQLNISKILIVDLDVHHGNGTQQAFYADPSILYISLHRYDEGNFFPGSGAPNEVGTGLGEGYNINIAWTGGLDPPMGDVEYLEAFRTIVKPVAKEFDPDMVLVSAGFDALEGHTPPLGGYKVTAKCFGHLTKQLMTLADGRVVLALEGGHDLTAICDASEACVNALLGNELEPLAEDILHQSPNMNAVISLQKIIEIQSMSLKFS

[10] = molecular target: T3, Polyamine deacetylase HDAC10 (Homo sapiens) (UniProt Q969S8); test: Inhibition of HDAC10 (unknown origin)
T3 sequence (whole entry): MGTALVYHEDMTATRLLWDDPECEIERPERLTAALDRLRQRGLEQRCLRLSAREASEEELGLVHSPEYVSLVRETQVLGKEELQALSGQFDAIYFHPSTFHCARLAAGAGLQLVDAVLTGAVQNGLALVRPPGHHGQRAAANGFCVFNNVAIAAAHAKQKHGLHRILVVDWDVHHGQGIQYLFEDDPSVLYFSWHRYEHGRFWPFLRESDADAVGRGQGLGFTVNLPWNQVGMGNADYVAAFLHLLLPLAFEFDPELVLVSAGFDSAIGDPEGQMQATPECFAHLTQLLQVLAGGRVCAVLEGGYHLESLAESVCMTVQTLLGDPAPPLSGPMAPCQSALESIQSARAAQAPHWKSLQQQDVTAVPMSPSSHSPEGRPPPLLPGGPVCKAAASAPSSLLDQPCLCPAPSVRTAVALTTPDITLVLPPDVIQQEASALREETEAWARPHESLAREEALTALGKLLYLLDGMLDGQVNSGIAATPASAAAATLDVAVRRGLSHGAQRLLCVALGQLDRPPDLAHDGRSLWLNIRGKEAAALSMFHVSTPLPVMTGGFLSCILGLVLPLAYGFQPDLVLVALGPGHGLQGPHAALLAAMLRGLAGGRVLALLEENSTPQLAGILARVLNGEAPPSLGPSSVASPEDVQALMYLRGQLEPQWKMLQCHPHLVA

[11] = molecular target: Endoplasmic reticulum aminopeptidase 1 (Homo sapiens) (UniProt Q9NZ08); test: Inhibition of ERAP1 (unknown origin)
Endoplasmic reticulum aminopeptidase 1 (Homo sapiens), sequence (Q9NZ08 whole entry): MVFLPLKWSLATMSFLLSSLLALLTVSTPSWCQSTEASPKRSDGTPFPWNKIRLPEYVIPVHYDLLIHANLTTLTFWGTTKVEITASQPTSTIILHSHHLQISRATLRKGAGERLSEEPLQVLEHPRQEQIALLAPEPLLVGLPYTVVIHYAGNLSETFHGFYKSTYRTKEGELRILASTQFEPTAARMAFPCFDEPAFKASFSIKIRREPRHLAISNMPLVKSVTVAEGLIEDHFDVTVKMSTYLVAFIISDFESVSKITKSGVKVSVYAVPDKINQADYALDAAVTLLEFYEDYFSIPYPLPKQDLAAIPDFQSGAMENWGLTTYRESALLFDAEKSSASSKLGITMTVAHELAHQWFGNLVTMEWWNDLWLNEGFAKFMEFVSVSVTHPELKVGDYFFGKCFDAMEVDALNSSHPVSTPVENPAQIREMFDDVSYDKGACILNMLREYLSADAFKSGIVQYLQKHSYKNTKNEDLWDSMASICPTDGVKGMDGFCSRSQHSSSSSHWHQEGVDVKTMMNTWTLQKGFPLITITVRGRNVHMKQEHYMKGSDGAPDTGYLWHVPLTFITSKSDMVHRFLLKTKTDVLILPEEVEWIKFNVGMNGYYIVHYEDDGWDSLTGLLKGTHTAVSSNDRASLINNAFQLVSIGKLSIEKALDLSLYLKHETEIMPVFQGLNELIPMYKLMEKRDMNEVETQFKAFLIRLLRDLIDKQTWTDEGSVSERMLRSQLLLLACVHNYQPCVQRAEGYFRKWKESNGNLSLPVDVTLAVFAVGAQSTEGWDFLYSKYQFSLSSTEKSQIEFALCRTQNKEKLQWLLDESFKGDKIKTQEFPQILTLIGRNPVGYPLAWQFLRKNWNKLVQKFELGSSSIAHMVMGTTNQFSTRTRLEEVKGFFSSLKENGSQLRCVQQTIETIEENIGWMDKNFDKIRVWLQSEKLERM

[12] = molecular target: Endoplasmic reticulum aminopeptidase 2 (Homo sapiens) (UniProt Q6P179); test: Inhibition of ERAP2 (unknown origin)
Endoplasmic reticulum aminopeptidase 2 (Homo sapiens), sequence (Q6P179 whole entry): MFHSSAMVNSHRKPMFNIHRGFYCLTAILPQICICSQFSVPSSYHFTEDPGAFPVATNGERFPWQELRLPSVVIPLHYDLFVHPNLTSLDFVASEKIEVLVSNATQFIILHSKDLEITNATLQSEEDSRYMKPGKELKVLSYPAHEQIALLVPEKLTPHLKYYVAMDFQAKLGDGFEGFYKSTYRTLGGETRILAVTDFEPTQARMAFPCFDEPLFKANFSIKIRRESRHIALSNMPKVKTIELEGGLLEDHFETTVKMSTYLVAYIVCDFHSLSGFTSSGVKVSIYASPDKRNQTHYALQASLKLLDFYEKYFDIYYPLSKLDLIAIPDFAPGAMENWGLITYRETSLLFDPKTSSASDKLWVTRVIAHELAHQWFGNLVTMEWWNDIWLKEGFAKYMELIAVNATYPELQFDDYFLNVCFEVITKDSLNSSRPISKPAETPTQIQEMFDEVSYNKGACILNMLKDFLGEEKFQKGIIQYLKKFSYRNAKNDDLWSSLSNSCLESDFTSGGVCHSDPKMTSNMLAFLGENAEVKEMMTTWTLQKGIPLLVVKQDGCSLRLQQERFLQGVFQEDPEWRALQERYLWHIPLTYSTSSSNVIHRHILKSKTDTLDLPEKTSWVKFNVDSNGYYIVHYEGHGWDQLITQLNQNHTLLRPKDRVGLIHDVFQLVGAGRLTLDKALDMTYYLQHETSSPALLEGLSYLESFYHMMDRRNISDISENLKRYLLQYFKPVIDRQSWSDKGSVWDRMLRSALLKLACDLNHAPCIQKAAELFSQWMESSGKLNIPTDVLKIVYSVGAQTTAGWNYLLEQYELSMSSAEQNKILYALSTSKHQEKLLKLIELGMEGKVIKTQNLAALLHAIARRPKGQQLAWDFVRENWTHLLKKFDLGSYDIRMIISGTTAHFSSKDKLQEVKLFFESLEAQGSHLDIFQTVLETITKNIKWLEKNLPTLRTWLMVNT

[13] = molecular target: Neutrophil collagenase (Homo sapiens) (UniProt P22894); test: Inhibition of MMP8 (unknown origin) at 10 uM relative to control
[14] = molecular target: Matrix metalloproteinase-9 (Homo sapiens) (UniProt P14780); test: Inhibition of MMP9 (unknown origin) at 10 uM relative to control
[15] = molecular target: Collagenase 3 (Homo sapiens) (UniProt P45452); test: Inhibition of MMP13 (unknown origin) at 10 uM relative to control
[16] = molecular target: Matrix metalloproteinase-15 (Homo sapiens) (UniProt P51511); test: Inhibition of MMP15 (unknown origin) at 10 uM relative to control
Matrix metalloproteinase-15 (Homo sapiens), sequence (P51511 132-669 limits assumed): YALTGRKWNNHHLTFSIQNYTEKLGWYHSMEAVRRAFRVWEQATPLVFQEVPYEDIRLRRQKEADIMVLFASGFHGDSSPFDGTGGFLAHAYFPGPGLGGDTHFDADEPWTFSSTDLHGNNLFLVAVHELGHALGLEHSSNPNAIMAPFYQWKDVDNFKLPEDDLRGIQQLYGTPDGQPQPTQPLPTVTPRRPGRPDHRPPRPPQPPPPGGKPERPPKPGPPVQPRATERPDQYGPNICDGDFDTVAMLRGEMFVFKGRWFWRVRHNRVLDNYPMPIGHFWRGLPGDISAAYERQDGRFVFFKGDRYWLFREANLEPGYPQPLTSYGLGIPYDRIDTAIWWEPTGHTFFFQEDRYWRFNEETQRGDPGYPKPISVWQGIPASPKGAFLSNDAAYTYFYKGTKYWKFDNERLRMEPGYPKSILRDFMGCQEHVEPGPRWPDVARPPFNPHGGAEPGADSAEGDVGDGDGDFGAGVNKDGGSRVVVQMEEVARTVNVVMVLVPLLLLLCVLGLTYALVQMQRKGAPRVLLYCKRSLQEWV

[17] = molecular target: Matrix metalloproteinase-24 (Homo sapiens) (UniProt Q9Y5R2); test: Inhibition of MMP24 (unknown origin) at 10 uM relative to control
[18] = Kinetic solubility of the compound in 0.01 M HCL at pH 2.0 measured after 30 mins by nephelometric analysis; format: physicochemical; details: read-out: Kinetic_solubility
[19] = Kinetic solubility of the compound in phosphate buffer at pH 6.5 measured after 30 mins by nephelometric analysis; format: physicochemical; details: read-out: Kinetic_solubility
[20] = Metabolic stability in human liver microsomes assessed as half life measured for 60 mins in presence of NADPH; format: ADME, Microsome
[21] = Metabolic stability in mouse liver microsomes assessed as half life measured for 60 mins in presence of NADPH; format: ADME, Microsome
[22] = Metabolic stability in human liver microsomes assessed as intrinsic clearance measured per mg protein for 60 mins in presence of NADPH; format: ADME, Microsome; details: read-out: CLH
[23] = Metabolic stability in mouse liver microsomes assessed as intrinsic clearance measured per mg protein for 60 mins in presence of NADPH; format: ADME, Microsome; details: read-out: CLH
[24] = system: HEK293; test: Cytotoxicity against HEK293 cells assessed as inhibition of cell growth at 40 uM; format: toxicity, cell-based; details: human, hek293, 40 µM

O=C(CNc1ccccc1)NC(C(=O)NO)c1ccc(-c2cc(F)c(F)c(F)c2)cc1 (centres undefined)
Ki [1]: 66 nM | Ki [2]: 57 nM | EC50 [3]: 170 nM | inhibition [4]: inactive | inhibition [5]: inactive | inhibition [6]: inactive | inhibition [7]: inactive | inhibition [8]: inactive | inhibition [9]: inactive | inhibition [10]: inactive | inhibition [11]: inactive | inhibition [12]: inactive | inhibition [13]: > 50% | inhibition [14]: > 50% | inhibition [15]: > 50% | inhibition [16]: > 50% | inhibition [17]: > 50% | solubility kinetic at 0.5 h [18]: 3.1 µg/mL (≈ 7.22 µM) | solubility kinetic at 0.5 h [19]: 1.6 µg/mL (≈ 3.73 µM) | half-life [20]: 1.77 h | half-life [21]: 1.75 h | microsomal CLint [22]: 16 µL/min/mg | microsomal CLint [23]: 17 µL/min/mg | Activity [24]: Non-Toxic
